This assay has as its target SARS-CoV-2 NSP3 Mac1 (Severe acute respiratory syndrome coronavirus 2, UniProt P0DTD1). Kind of assay: biochemical. The class given is binding. The conditions noted are these: for NSP3 Mac1 inhibition at 50 µM (%) / inhibition at 50 µM: FDA-approved compound library primary screen, single shot; for Hill slope: confirmatory HTRF assays; for inhibition at 125 µM: read-out: Inhibition at top concentration of 125 µM (%). In general terms: Time-resolved FRET reads energy transfer from a long-lived donor to a nearby acceptor.

The mark [1] stands for this setting: MIDAS compound library primary screen, 25 µM.
Setting [2] is: BioAscent virtual screening hit compounds, 25 µM, duplicate.
The mark [3] stands for this setting: MIDAS hit compounds and analogues.
Setting [4] is: MIDAS hit compounds and analogues, top concentration 125 µM, 8-point 1:1 dilution, duplicate, read-out: IC50.
Setting [5] is: MIDAS hit compounds and analogues, top concentration 125 µM, 8-point 1:1 dilution, duplicate.

Molecules are shown by their SMILES. Values joined by “and” are separate entries in the source; they are usually repeats but may differ in a detail not shown here. Identical values can stand only once. Like-named read-outs stand apart in the source and are kept apart here.

By Hill slope is commonly meant a measure of the steepness of the concentration-response curve. By IC50 is commonly meant the concentration at which inhibition is half-maximal.

Regarding `O=C(Nc1ccc2cc[nH]c2c1)c1csc(NCC2CCCO2)n1` (centres unmarked) [ARUK4000671-001-001, O=C(Nc1ccc2cc[nH]c2c1)c1csc(n1)NCC1CCCO1], under setting [1], the inhibition at 25 µM was found to be 106%.
On to `NC(=O)[C@@H]1CCCN1C(=O)c1cc(-n2cccc2)ccc1Cl` [ARUK4000702-001-001, NC(=O)[C@@H]1CCCN1C(=O)c1cc(ccc1Cl)-n1cccc1], for which, under setting [1], the inhibition at 25 µM was found to be 45.8%.
In the case of `CC(=O)N1CCc2nc(N)c(C#N)c(-c3cccc(-c4ccco4)c3)c2C1` [ARUK4004310-001-001, CC(=O)N1CCc2nc(c(c(c2C1)-c1cccc(c1)-c1ccco1)C#N)N], the inhibition at 25 µM under setting [1] was 61%.
With `COc1ccc(C(=O)CC(=O)c2ccc(C(C)(C)C)cc2)cc1` [Avobenzone, reference compound], the “NSP3 Mac1 inhibition at 50 µM (%)” value is reported as 62% and the inhibition at 50 µM stood at 61.8%.
On to `C[C@H]1[C@H](NC(=O)/C(=N\OC(C)(C)C(=O)O)c2csc(N)n2)C(=O)N1S(=O)(=O)O` [Aztreonam, reference compound], for which the “NSP3 Mac1 inhibition at 50 µM (%)” value is given as 43% and the inhibition at 50 µM was found to be 42.8%. In addition, the Hill slope (FDA-approved hit compounds) came to 1.05. Further, the IC50 (IC50) is 29.3 µM and 29 µM.
For `COc1cc(/C=C2\Oc3cc(O)ccc3C2=O)ccc1O` [BCC0002149, COc1cc(/C=C2\Oc3cc(O)ccc3C2=O)ccc1O], the inhibition at 25 µM under setting [2] came to 47.2%.
For the compound `CN(C)S(=O)(=O)c1ccc2nc(C(=O)O)n(O)c2c1` [BCC0019152, CN(C)S(=O)(=O)c1ccc2nc(C(=O)O)n(O)c2c1], the inhibition at 25 µM under setting [2] was 32.7%.
The same measure, in the same setting: in the case of `O=c1cc(-c2ccc(Cl)cc2)oc2cc(OCC(O)CS(=O)(=O)c3ccc(Cl)cc3)ccc12` (centres unmarked) [BCC0030992, O=c1cc(-c2ccc(Cl)cc2)oc2cc(OCC(O)CS(=O)(=O)c3ccc(Cl)cc3)ccc12] it was 31.6%.
`CCN1C(=O)c2cccc3c(S(=O)(=O)O)ccc1c23` [BCC0032304, CCN1C(=O)c2cccc3c(S(=O)(=O)O)ccc1c23]: the inhibition at 25 µM under setting [2] turned out to be 36.4%.
Regarding `Cc1cccn2c(=O)c3cc(C(=O)O)n(C)c3nc12` [BCC0049478, Cc1cccn2c(=O)c3cc(C(=O)O)n(C)c3nc12], under setting [2], the inhibition at 25 µM was 30.6%.
On to `CN1C(=O)c2ccc(N3CCCC3)cc2C1=O` [BCC0067629, CN1C(=O)c2ccc(N3CCCC3)cc2C1=O], for which the inhibition at 25 µM under setting [2] came to 30.5%.
As for `Oc1nc2ccccc2nc1-c1c[nH]c2ccccc12` [BCC0071692, Oc1nc2ccccc2nc1-c1c[nH]c2ccccc12], the inhibition at 25 µM under setting [2] came to 35%.
As to `CN(C)c1ccc(-c2ccc3ccccc3n2)cc1` [BCC0083752, CN(C)c1ccc(-c2ccc3ccccc3n2)cc1], the inhibition at 25 µM under setting [2] is 46.8%.
Take `Cc1cc2nn(-c3ccccc3)nc2cc1N` [BCC0086077, Cc1cc2nn(-c3ccccc3)nc2cc1N]: under setting [2], the inhibition at 25 µM came out at 67.8%.
With `Nc1ccc2nc3c(=O)[nH]c(=O)[nH]c3nc2c1` [BCC0091906, Nc1ccc2nc3c(=O)[nH]c(=O)[nH]c3nc2c1], the inhibition at 25 µM under setting [2] stood at 56.2%.
As to `Oc1cc2ccccc2nc1-c1ccccc1` [BCC0093974, Oc1cc2ccccc2nc1-c1ccccc1], under setting [2], the inhibition at 25 µM came to 38.6%.
`Nc1ccc2oc(-c3cccnc3)nc2c1` [BCC0105824, Nc1ccc2oc(-c3cccnc3)nc2c1]: the inhibition at 25 µM under setting [2] came to 30.1%.
Same read-out and setting: in the case of `O=c1c(O)c(-c2cccs2)oc2ccccc12` [BCC0111915, O=c1c(O)c(-c2cccs2)oc2ccccc12] it was 62.9%.
With `COc1cc(/C=C/C(=O)c2cc3ccccc3o2)cc(Br)c1O` [BCC0117785, COc1cc(/C=C/C(=O)c2cc3ccccc3o2)cc(Br)c1O], the inhibition at 25 µM under setting [2] worked out at 39.3%.
Turning to `CC(=O)c1ccc(-c2ccc(N)cc2)o1` [BCC0119417, CC(=O)c1ccc(-c2ccc(N)cc2)o1], under setting [2], the inhibition at 25 µM amounted to 59.3%.
The same measure, in the same setting: in the case of `Nc1ccc2c(c1)C/C(=C/c1ccco1)C2=O` [BCC0121661, Nc1ccc2c(c1)C/C(=C/c1ccco1)C2=O] it was 56.9%.
`O=c1ccsn1-c1ccc(F)c(Cl)c1` [BCC0125028, O=c1ccsn1-c1ccc(F)c(Cl)c1]: the inhibition at 25 µM under setting [2] was found to be 57.5%.
Take `O=C(O)CCCC[C@@H]1SC[C@@H]2NC(=O)N[C@@H]21` [Biotin, reference compound]: the “NSP3 Mac1 inhibition at 50 µM (%)” value amounted to 107% and the inhibition at 50 µM turned out to be 108%.
Consider `N.N.O=C([O-])C1(C(=O)[O-])CCC1.[Pt+2]` [Carboplatin, reference compound], for which the “NSP3 Mac1 inhibition at 50 µM (%)” value stood at 97.3%. For the same compound, the “outcome of dose-response titration” value (FDA-approved hit compounds, top concentration 125 µM) is listed as “strong assay interference”.
On to `CO/N=C(\C(=O)N[C@@H]1C(=O)N2C(C(=O)[O-])=C(C[N+]3(C)CCCC3)CS[C@H]12)c1csc(N)n1.Cl` [Cefepime hydrochloride, reference compound], for which the “NSP3 Mac1 inhibition at 50 µM (%)” value came to 42.1%.
Take `CC(C)(O/N=C(\C(=O)N[C@@H]1C(=O)N2C(C(=O)[O-])=C(C[n+]3ccccc3)CS[C@H]12)c1csc(N)n1)C(=O)O` [Ceftazidime, reference compound]: the “NSP3 Mac1 inhibition at 50 µM (%)” value came out at 108% and the inhibition at 50 µM turned out to be 108%. This compound also registered a Hill slope (FDA-approved hit compounds) of 1.38. Moreover, the concentration for half-maximal inhibition (IC50) (IC50) is 37.1 µM and 37 µM.
Regarding `Nc1nc(/C(=C/CC(=O)O)C(=O)N[C@@H]2C(=O)N3C(C(=O)O)=CCS[C@H]23)cs1` [Ceftibuten, reference compound], the inhibition at 50 µM was 71.6%.
`CC(=O)OCC1=C(C(=O)O)N2C(=O)[C@@H](NC(=O)CCC[C@@H](N)C(=O)O)[C@H]2SC1` [Cephalosporin C sodium, reference compound]: the inhibition at 50 µM worked out at 89.8%.
`COCCNC(=O)c1ccc(-c2ccnc3c2ccn3C)o1` [Compound 1, COCCNC(=O)c1ccc(o1)-c1ccnc2n(ccc12)C]: the inhibition at 25 µM under setting [1] turned out to be 73%. Besides, the “NSP3 Mac1 inhibition at 25 µM (%)” value (MIDAS compound library primary screen, 25 µM, listed as ARUK4007189-001-001, 25 µM) came to 73.1%.
As for `O=c1c2ccccc2[se]n1-c1ccccc1` [Ebselen, reference compound], the “NSP3 Mac1 inhibition at 50 µM (%)” value was 107% and the inhibition at 50 µM is 108%. This compound also had a Hill slope (FDA-approved hit compounds) of 4.94.
Consider `CCOc1ccc2nc3cc(N)ccc3c(N)c2c1` [Ethacridine lactate, reference compound], for which the inhibition at 50 µM came to 49.3%.
Consider `CCCCCCCC/C=C\CCCCCCCC(=O)O.NCCO` [Ethanolamine oleate, reference compound], for which the “NSP3 Mac1 inhibition at 50 µM (%)” value was 56.1%.
For `Oc1c(Cl)cc(Cl)c(Cl)c1Cc1c(O)c(Cl)cc(Cl)c1Cl` [Hexachlorophene, reference compound], the inhibition at 50 µM turned out to be 85.5%.
Consider `Nc1c(C(=O)NC2CC2)sc2nc(-c3ccccn3)ccc12` [IAL-MD0017, O=C(C1=C(N)C2=CC=C(C3=NC=CC=C3)N=C2S1)NC4CC4], for which the inhibition at 25 µM under setting [1] is 58.7%. For the same compound, under setting [3], the inhibition at 125 µM is 79.6%. Moreover, the IC50 under setting [4] was found to be 12.6 µM.
Turning to `CC(C)n1ncc2c(C(=O)NCc3cccs3)cc(-c3ccccc3)nc21` [IAL-MD0018, CC(C)N1N=CC=2C(=CC(=NC12)C=3C=CC=CC3)C(=O)NCC4=CC=CS4], the “Inhibition at top concentration of 125 µM (%)” value under setting [3] is listed as “Not measurable”. Besides, the “IC50 in µM” value under setting [5] is on record as “Not measurable”.
With `CONC(=O)c1cc(-c2ccc(OC)cc2)nc2ccccc12` [IAL-MD0024, CONC(=O)C=1C=C(N=C2C=CC=CC12)C=3C=CC(OC)=CC3], the inhibition at 125 µM under setting [3] is 60.3%. Besides, the IC50 under setting [4] was found to be 68 µM.
`CCn1ncc2c(C(=O)Nc3cccc(NC(C)=O)c3)cc(-c3ccccc3)nc21` [IAL-MD0025, CCN1N=CC=2C(=CC(=NC12)C=3C=CC=CC3)C(=O)NC=4C=CC=C(NC(=O)C)C4]: the “Inhibition at top concentration of 125 µM (%)” value under setting [3] is recorded as “Not measurable”. The “IC50 in µM” value under setting [5] is given as “Not measurable”.
Consider `CCn1ncc2c(C(=O)Nc3ncc(C)s3)cc(-c3cccs3)nc21` [IAL-MD0026, CCN1N=CC=2C(=CC(=NC12)C3=CC=CS3)C(=O)NC4=NC=C(C)S4], for which the inhibition at 125 µM under setting [3] is 11.1%. In addition, the “IC50 in µM” value under setting [5] is “Not measurable”.
As to `COc1ccc(-c2cc(C(=O)O)c3c(C)cc(C)cc3n2)cc1` [IAL-MD0029, COC=1C=CC(=CC1)C=2C=C(C(=O)O)C=3C(C)=CC(C)=CC3N2], the inhibition at 125 µM under setting [3] was found to be 61.2%. Under setting [4], the IC50 is 76 µM and 75.9 µM.
For `COc1ccc(-c2cc(C(=O)O)c3ccc(OC)cc3n2)cc1` [IAL-MD0030, COC=1C=CC(=CC1)C=2C=C(C(=O)O)C=3C=CC(OC)=CC3N2], the inhibition at 125 µM under setting [3] is 44.7%. Besides, the “IC50 in µM” value under setting [5] is “Not measurable”.
For the compound `COc1ccc(-c2cc(C(=O)O)c3cc(NC(C)=O)ccc3n2)cc1` [IAL-MD0031, COC=1C=CC(=CC1)C=2C=C(C(=O)O)C=3C=C(NC(=O)C)C=CC3N2], the inhibition at 25 µM under setting [1] was found to be 48%. Under setting [3], the inhibition at 125 µM is 81.3%. In addition, under setting [4], the IC50 was 19 µM and 19.3 µM.
Regarding `CC(=O)Nc1cccc(NC(=O)c2cc(-c3cccs3)nc3c2cnn3C(C)C)c1` [IAL-MD0032, CC(C)N1N=CC=2C(=CC(=NC12)C3=CC=CS3)C(=O)NC=4C=CC=C(NC(=O)C)C4], the inhibition at 125 µM under setting [3] was found to be 20.3%. Moreover, the “IC50 in µM” value under setting [5] is given as “Not measurable”.
Regarding `COc1cccc(NC(=O)c2cc(-c3cccs3)nc3c2cnn3C(C)C)c1` [IAL-MD0033, COC=1C=CC=C(NC(=O)C=2C=C(N=C3N(N=CC23)C(C)C)C4=CC=CS4)C1], the inhibition at 125 µM under setting [3] was 12.1%. The “IC50 in µM” value under setting [5] was “Not measurable”.
For `COc1ccc(-c2cc(C(=O)Nc3cccc(OCC(N)=O)c3)c3ccccc3n2)cc1` [IAL-MD0034, COC=1C=CC(=CC1)C=2C=C(C(=O)NC=3C=CC=C(OCC(=O)N)C3)C=4C=CC=CC4N2] the same measures were 8.9% and “Not measurable”.
Consider `CCC(C)NC(=O)c1cc(-c2ccc(OC)cc2)nc2ccccc12` (centres unmarked) [IAL-MD0035, CCC(C)NC(=O)C=1C=C(N=C2C=CC=CC12)C=3C=CC(OC)=CC3], for which the inhibition at 125 µM under setting [3] was 6.8%. Moreover, the “IC50 in µM” value under setting [5] is reported as “Not measurable”.

The values are drawn from publication PMC9965906, “Discovery and Development Strategies for SARS-CoV-2 NSP3 Macrodomain Inhibitors” (Pathogens, 2023).
